Measurements from the supplement of paper PMC11919725.

Key:
Jurkat [1] = experiment: metabolic activity relative to DMSO, 18 h (ratio); higher = more viable
Outline: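 Metabolic activity values are normalised to the average of vehicle control wells. They come from Jurkat or primary CD4+/CD8+ T cells (naive, or activated 48 h with CD3/CD28 Dynabeads) treated for 18 h at 37 °C, 5% CO2 with compound over 1 nM–10 µM in log10 steps. Then 100 µl of each suspension was mixed in 96-well plates with alamarBlue (10% v/v final), and fluorescence at 544 nm excitation and 584 nm emission was recorded on a FluoStar Omega 3.5 h later.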

Jurkat [2] = experiment: confluency relative to DMSO, 18 h (ratio); higher = more viable
Outline: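 Jurkat cells or primary CD4+/CD8+ T cells, either naive or activated for 48 h with CD3/CD28 Dynabeads, were exposed to compound from 1 nM to 10 µM in log10 steps for 18 h at 37 °C and 5% CO2. Afterwards, 100 µl of each suspension was moved into 96-well plates containing IncuCyte Cytotox Dye and alamarBlue. Phase-contrast images were taken at ×10, five per well, every hour for 3 h. Confluency was derived from these images with the IncuCyte Basic Analyzer, and values are expressed relative to the mean of the control wells.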

Jurkat [3] = experiment: cytotoxicity relative to DMSO, 18 h (ratio); higher = less cell death (drugs called cytotoxic fall below 1)
Outline: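 Fluorescence was imaged at ×10, five images per well, every hour for 3 h, in 96-well plates holding 100 µl of treated cell suspension and IncuCyte Cytotox Dye at 250 nM final. Before plating, Jurkat cells or primary CD4+/CD8+ T cells (naive, or activated 48 h with CD3/CD28 Dynabeads) had been treated for 18 h with compound across 1 nM–10 µM in log10 steps at 37 °C, 5% CO2. Cytotoxicity values were based on these IncuCyte signals after confluency correction and normalisation to the mean of control wells.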

Compound	metabolic activity (Jurkat [1]; 1 nM)	metabolic activity (Jurkat [1]; 10 nM)	metabolic activity (Jurkat [1]; 100 nM)	metabolic activity (Jurkat [1]; 1000 nM)	metabolic activity (Jurkat [1]; 10000 nM)	confluency (Jurkat [2]; 1 nM)	confluency (Jurkat [2]; 10 nM)	confluency (Jurkat [2]; 100 nM)	confluency (Jurkat [2]; 1000 nM)	confluency (Jurkat [2]; 10000 nM)	cytotoxicity (Jurkat [3]; 1 nM)	cytotoxicity (Jurkat [3]; 10 nM)	cytotoxicity (Jurkat [3]; 100 nM)	cytotoxicity (Jurkat [3]; 1000 nM)	cytotoxicity (Jurkat [3]; 10000 nM)
C=CCNC1=C2CC(C)CC(OC)C(O)C(C)C=C(C)C(OC(N)=O)C(OC)C=CC=C(C)C(=O)NC(=CC1=O)C2=O (stereo not given) [Tanespimycin]	0.935	0.939	0.999	0.835	0.795	0.985	0.872	0.982	0.7	0.734	0.913	0.813	0.913	0.585	0.628
COc1cccc2c1c(O)c(C(=O)N(C)c1ccc(C(F)(F)F)cc1)c(=O)n2C [Tasquinimod]	1.06	0.914	0.979	1.17	1.12	0.994	0.999	0.975	1.02	1	1	0.998	0.97	1.2	1.15
CCN(c1cc(-c2ccc(CN3CCOCC3)cc2)cc(C(=O)NCc2c(C)cc(C)[nH]c2=O)c1C)C1CCOCC1 [Tazemetostat]	0.926	0.932	0.939	1.12	1.24	0.999	0.961	0.898	0.926	0.97	0.997	0.928	0.843	0.912	1.05
COC1CC2CCC(C)C(O)(O2)C(=O)C(=O)N2CCCCC2C(=O)OC(C(C)CC2CCC(OC(=O)C(C)(CO)CO)C(OC)C2)CC(=O)C(C)C=C(C)C(O)C(OC)C(=O)C(C)CC(C)C=CC=CC=C1C (stereo not given) [Temsirolimus]	0.977	0.927	0.903	0.93	0.762	0.971	0.876	0.899	1.02	1.05	0.937	0.781	0.787	0.958	0.925
O=C1CCC(N2C(=O)c3ccccc3C2=O)C(=O)N1 (stereo not given) [Thalidomide]	1.17	1.26	1.27	1.13	0.925	0.954	0.93	1	0.99	0.975	0.981	1	1.1	0.991	0.855
CC1CCN(C(=O)CC#N)CC1N(C)c1ncnc2[nH]ccc12 (stereo not given) [Tofacitinib]	1.23	1.27	1.02	0.928	0.908	0.957	0.941	0.983	0.961	0.844	1.01	1.06	0.922	1.02	0.851
CC(=O)Nc1cccc(-n2c(=O)n(C3CC3)c(=O)c3c(Nc4ccc(I)cc4F)n(C)c(=O)c(C)c32)c1 [Trametinib]	1.12	1.08	1.15	1.1	1.02	1.01	1.03	1.05	1.03	1	1.14	1.12	1.26	1.12	1.02
